Test results: patent US20070117842A1, “Polymorph of 4-[3-chloro-4-(cyclopropylaminocarbonyl)aminophenoxy]-7-methoxy-6- quinolinecarboxamide and a process for the preparation of the same” (priority 2003, published 2007)
≈ marks a conversion by molar mass, not a printed value.

Key:
[1] = Solid stability test (1 month storage; appearance, water content, HPLC purity and residual ratio, powder X-ray diffraction); assay type: physicochemical; details: for impurity / remaining percent: HPLC; for water content: Karl Fischer method
Protocol: (Solid Stability Test) The solid stabilities of the crystal obtained in Examples 1d and 2d were evaluated. […] The water content measurement and the powder X-ray diffraction measurement were carried out by the same method as described in the hygroscopicity test by the dessiccator method. Further, the purity test and the residual ratio (percent) measurement by HPLC were carried out by the same method as described above, except for the condition that the column temperature was 35° C. In this connection, the residual ratio (percent) (measurement by HPLC) was defined as stated bellow by using the crystal stored under the condition C as the standard and its solution as the standard solution. Remaining percent (%)=[(Peak area of the sample solution)×(Weighed amount of the standard: in terms of a dehydrate (mg))]×100/[(Peak area of the standard solution)×(Weighed amount of the sample: in terms of a dehydrate (mg))] [table]

[2] = Crystal transition between polymorphs in heated suspension; assay type: physicochemical; details: 60° C., 3 hours, listed as polymorph (B)
Protocol: These suspensions were filtered to collect 4-(3-chloro-4-(cyclopropylaminocarbonyl)aminophenoxy)-7-methoxy-6-quinolinecarboxamide (184 to 266 mg).
These suspensions were filtered to collect 4-(3-chloro-4-(cyclopropylaminocarbonyl)aminophenoxy)-7-methoxy-6-quinolinecarboxamide (141 to 256 mg).

[3] = Hygroscopicity test by a desiccator method; assay type: physicochemical; details: for water content: Karl Fischer method
Protocol: (Hygroscopicity Test by a Desiccator Method) The hygroscopicities of the crystals obtained in Examples 1d and 2d were evaluated by a desiccator method. […] Weighing bottles (in opened caps) were used for containers, and MIR-552 (Sanyo) was used for a storage apparatus. [table] The powder X-ray diffraction analysis was carried out under the following conditions. The water content was measured (by the Karl Fischer method) by using the following apparatus and reagents.

[4] = Hygroscopicity test by microbalance method; assay type: physicochemical; details: 25° C.
Protocol: (Hygroscopicity Test by Microbalance Method)
The higroscopicities of the crystals obtained in Examples 1d and 2d were evaluated by microbalance method. An apparatus and conditions employed were as follows.
Apparatus: Integrated microbalance system MB 300W (VTI Co.)
Relative humidity step: 5 to 95 by 5
Equilibrium Criteria: 0.0050 wt % (5 minutes)
Maximum equilibrium time: 120 minutes
The results of measuring the higroscopicities of the crystals obtained in Examples 1d and 2d by microbalance method are shown in FIGS. 13 and 14, respectively. As is seen from the results shown in these figures, within the range of 5-95% of relative humidity, the polymorph (A) gave a weight change of 1% and the polymorph (B) gave that of 1.5%.

[5] = Solubility test (pH 3, Britton Robinson buffer); assay type: physicochemical; details: for solubility (concentration in filtrate): pH 3 Britton Robinson buffer, 25-26° C.; for pH of the filtrate: solubility test
Protocol: (Solubility Test) The solubilities (pH 3) of the crystals obtained in Examples 1d and 2d were evaluated by the following method. About 3 mg of the crystals obtained in Examples 1d and 2d were weighed and each of them was put in a 10 mL screw-capped transparent test tube. 5 mL of a buffer solution (Britton Robinson buffer, pH 3.091, ionic strength I=0.3) was added to each of the test tubes to prepare the test solutions. The test tubes were wrapped with aluminum foil to shield from light, and shaken by a shaker (MS-1 Iuchi Seieido) in the following conditions. Temperature: 25-26° C. (a temperature in a laboratory) Shaking frequency: 150 times/minute Shaking time: 3 hours and 5 hours Respective sample solutions after shaking were filtered ([…], Sample LCR13-LG, Millipore Co.), and each 1 mL of the initial filtrate was discarded. Each of accurately pipetted 1 mL of the filtrates was put in a 10 mL test tube, to which accurately pipetted 1 mL of a mixed solution of water/acetonitrile (1:1 (v/v)) was added to prepare a solution for the HPLC analysis. The HPLC conditions were as follows. A standard solution for the HPLC analysis were prepared as follows. About 10 mg of the crystals obtained in Example 2d was accurately weighed, to which a mixed solution of water/acetonitrile/ammonium acetate (100:100:0.1, v/v/w) was added to give accurate 100 mL to prepare a stock standard solution. Accurately pipetted 5 mL of the stock control solution was added with a mixed solution of water/acetonitrile/ammonium acetate (100:100:0.1, v/v/w) to give accurate 25 mL to prepare the standard solution for the HPLC analysis. Regarding a blank solution, a mixed solution of water/acetonitrile/ammonium acetate (100:100:0.1, v/v/w) was used. The standard solution and respective filtrates were analyzed by HPLC to measure concentrations (mg/mL) of 4-(3-chloro-4-(cyclopropylaminocarbonyl)aminophenoxy)-7-methoxy-6-quinolinecarboxamide in respective filtrates according to the following equation. Concentration (mg/mL)=(Concentration in the standard solution, mg/mL)×[(Peak area in each filtrate)×2/(Peak area in the standard solution)] As is evident from the results, there was no significant difference in the solubility at pH 3 between the polymorphs (A) and (B).

[6] = system: small cell lung cancer cell line H-526 expressing c-Kit kinase; assay: Effect on cell proliferation stimulated by SCF; assay type: cell-based; details: Homo sapiens, NCI-H526; H-526 cells, SCF stimulation, 7th day, Cell Counting Kit-8; read-out: IC50 (concentration required for 50% inhibition of the cell proliferation)
Protocol: After culturing, H-526 cells were washed with PBS three times and were suspended in an RPMI1640 medium containing 0.1% BSA (Sigma Corporation) (hereinafter abbreviated as “BSA-RPMI1640”) at 1.0×10^5 cells/ml. […] After color development, the absorbance of each well was determined using a MTP-32 plate reader (Colona Electric Co., Ltd.) at a measuring wavelength of 450 nm and at a reference wavelength of 660 nm. The absorbance of each well was subtracted by the absorbance of the well without addition of SCF, and then the ratio of the absorbance of the well with addition of the test substance to the ratio of the absorbance of the well without addition of the test substance was determined. This ratio was used to calculate the concentration of the test substance required for 50% inhibition of the cell proliferation (IC50).

[7] = condition C: −20° C., brown screw vial, closed, 1 month
[8] = condition D: 25° C., 1000lx, shading with aluminum foil, quartz tube, closed, 1 month
[9] = condition E: 25° C., 1000lx, quartz tube, closed, 1 month
[10] = condition F: 40° C., 75% RH, brown screw vial, open, 1 month
[11] = condition G: 60° C., brown screw vial, closed, 1 month
[12] = condition A: 25° C., 75% relative humidity, stored 1 week
[13] = condition B: 25° C., 93% relative humidity, stored 1 week
[14] = desiccator method, 25° C., 75% or 93% relative humidity, 1 week

With `COc1cc2nccc(Oc3ccc(NC(=O)NC4CC4)c(Cl)c3)c2cc1C(N)=O` [Example 2d, 4-(3-chloro-4-(cyclopropylaminocarbonyl)aminophenoxy)-7-methoxy-6-quinolinecarboxamide] the appearance [1, 7] was “pale brownish”, the impurity [1, 7] was 1.55% and the remaining percent ([1]; condition C: −20° C., brown screw vial, closed, 1 month, condition C is the standard) was “(100) %”. The water content [1, 7] was 0.4 wt %, the appearance [1, 8] was “pale brownish” and the impurity [1, 8] was 1.54%. For the same compound, the remaining percent ([1]; condition D: 25° C., 1000lx, shading with aluminum foil, quartz tube, closed, 1 month, vs condition C standard) was 101.8%, the water content [1, 8] was 0.3 wt % and the appearance [1, 9] was “pale brownish”. It also gave an impurity [1, 9] of 1.55%, a remaining percent ([1]; condition E: 25° C., 1000lx, quartz tube, closed, 1 month, vs condition C standard) of 100.5% and a water content [1, 9] of 0.3 wt %. The appearance [1, 10] was “pale brownish”, the impurity [1, 10] was 1.54% and the remaining percent ([1]; condition F: 40° C., 75% RH, brown screw vial, open, 1 month, vs condition C standard) was 100.4%. For the same compound, the water content [1, 10] was 0.4 wt %, the appearance [1, 11] was “pale brownish” and the impurity [1, 11] was 1.53%. For the same compound, the remaining percent ([1]; condition G: 60° C., brown screw vial, closed, 1 month, vs condition C standard) was 101.3%, the water content [1, 11] was 0.5 wt % and the appearance ([1]; prior to storage) was “pale brownish”. For the same compound, the impurity ([1]; prior to storage) was 1.53%, the water content ([1]; prior to storage) was 0.5 wt % and the “change on storage (solid stability)” value ([1]; stored for 1 month, any storage conditions) was “no change was observed”. The “crystal form after suspension” value ([2]; 300 mg in DMSO (1.7 mL) and 33% (v/v) acetone-water (0.17, 0.34, 0.51 or 0.85 mL)) was “all of them remained the polymorph (B)”, the “dissolution in DMSO” value ([2]; 300 mg in DMSO (1.7 mL), without 33% acetone-water) was “most of the polymorph (B) dissolved” and the appearance [3, 12] was “pale brownish”. The water content [3, 12] was 0.5 wt %, the appearance [3, 13] was “pale brownish” and the water content [3, 13] was 0.5 wt %. For the same compound, the crystal transition [3, 14] was “no perceivable crystal transition”, the hygroscopicity [3, 14] was “no perceivable hygroscopicitiy” and the appearance ([3]; prior to storage) was “pale brownish”. For the same compound, the water content ([3]; prior to storage) was 0.5 wt %, the hygroscopicity ([4]; microbalance method, 5-95% relative humidity) was “no perceivable hygroscopisity” and the weight change ([4]; within the range of 5-95% of relative humidity, listed as polymorph (B)) was 1.5%. The “solubility (concentration in filtrate)” value ([5]; shaking time 3 hours) was 62 µg/mL (≈ 145 µM), the “solubility (concentration in filtrate)” value ([5]; shaking time 5 hours) was 54 µg/mL (≈ 127 µM) and the “pH of the filtrate” value ([5]; shaking time 3 hours) was 3.109. The “pH of the filtrate” value ([5]; shaking time 5 hours) was 3.106.
In the case of `CCCNC(=O)Nc1ccc(Oc2ncnc3cc(OC)c(OC)cc23)cc1Cl` [KRN633, reference compound], the IC50 [6] is reported as 301 nM.
